# From patent US11780845B2 (Relay Therapeutics, Inc., priority 2019, dated 2023)
# What was measured:
# FGFR2 = FGFR2 (Homo sapiens (Human), UniProt P21802); experiment: Biochemical FGFR2 Caliper assay
# SNU-16 = experiment: Cell SNU-16 assay; format: cell-based
# [1] = Homo sapiens, SNU-16, SNU-16 cells
# Sequence of FGFR2 (P21802 22-821): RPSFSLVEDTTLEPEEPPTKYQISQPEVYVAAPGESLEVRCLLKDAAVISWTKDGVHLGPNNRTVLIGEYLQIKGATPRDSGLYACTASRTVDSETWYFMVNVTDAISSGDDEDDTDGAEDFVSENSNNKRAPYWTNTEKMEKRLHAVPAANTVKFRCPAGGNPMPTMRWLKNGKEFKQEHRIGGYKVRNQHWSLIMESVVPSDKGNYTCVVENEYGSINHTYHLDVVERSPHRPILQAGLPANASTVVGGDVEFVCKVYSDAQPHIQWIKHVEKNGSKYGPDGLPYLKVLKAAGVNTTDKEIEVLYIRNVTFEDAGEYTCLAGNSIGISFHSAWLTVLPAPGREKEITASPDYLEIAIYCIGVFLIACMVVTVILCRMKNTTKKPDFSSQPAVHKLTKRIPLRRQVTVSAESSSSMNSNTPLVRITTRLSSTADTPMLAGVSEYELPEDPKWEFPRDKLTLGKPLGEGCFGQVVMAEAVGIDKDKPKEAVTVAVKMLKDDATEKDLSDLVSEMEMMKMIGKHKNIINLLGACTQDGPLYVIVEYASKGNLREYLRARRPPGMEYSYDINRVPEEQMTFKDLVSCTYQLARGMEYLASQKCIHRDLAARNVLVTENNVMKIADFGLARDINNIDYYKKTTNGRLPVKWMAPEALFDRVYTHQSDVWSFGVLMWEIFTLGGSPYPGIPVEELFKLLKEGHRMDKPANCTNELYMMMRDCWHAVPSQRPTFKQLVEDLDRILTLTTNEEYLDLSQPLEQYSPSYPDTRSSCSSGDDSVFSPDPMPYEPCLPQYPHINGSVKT
Compound,IC50 (FGFR2),IC50 (SNU-16; [1]),IC50 (SNU-16; SNU-16 cells)
"C=CC(=O)N[C@H]1CCc2cc(-c3c(-c4ccc(Oc5nccc(C)n5)cc4)c4c(N)ncnc4n3C)ccc21 (single isomer, unassigned) [Example 929]",0.25 to 1 µM,0.1 to 0.25 µM,
"C=C(C)C(=O)N1CC=C(c2c(-c3ccc(Oc4cccc(C)n4)cc3)c3c(N)ncnc3n2C)[C@H]1C (single isomer, unassigned) [Example 930]",0.25 to 1 µM,0.1 to 0.25 µM,
"C=C(C)C(=O)N1CC=C(c2c(-c3ccc(Oc4cccc(C)n4)cc3)c3c(N)ncnc3n2C)[C@@H]1C (single isomer, unassigned) [Example 931]",0.25 to 1 µM,1 to 100 µM,
"C=CC(=O)N1CC=C(c2c(-c3ccc(Oc4cccc(C)n4)cc3)c3c(N)ncnc3n2C)[C@H]1C (single isomer, unassigned) [Example 932]",0.1 to 0.25 µM,0.25 to 1 µM,
"C=CC(=O)N1CC=C(c2c(-c3ccc(Oc4cccc(C)n4)cc3)c3c(N)ncnc3n2C)[C@@H]1C (single isomer, unassigned) [Example 933]",< 0.1 µM,≤ 0.1 µM,
"C=C(C)C(=O)Nc1ccc(-c2c(C3=CC[C@]4(CC3)CCN(C)C4=O)c3c(N)ncnc3n2C)cc1 (single isomer, unassigned) [Example 934]",< 0.1 µM,≤ 0.1 µM,
"C=C(C)C(=O)Nc1ccc(-c2c(C3=CC[C@@]4(CC3)CCN(C)C4=O)c3c(N)ncnc3n2C)cc1 (single isomer, unassigned) [Example 935]",1 to 100 µM,1 to 100 µM,
"C=C(C)C(=O)Nc1ccc(-c2c(C3=CC[C@@H](C(=O)N4CCCC4)C[C@H]3C)c3c(N)ncnc3n2C)cc1 (single isomer, unassigned) [Example 936]",1 to 100 µM,0.25 to 1 µM,
"C=C(C)C(=O)Nc1ccc(-c2c(C3=CC[C@H](C(=O)N4CCCC4)C[C@H]3C)c3c(N)ncnc3n2C)cc1 (single isomer, unassigned) [Example 938]",1 to 100 µM,1 to 100 µM,
"C=C(C)C(=O)Nc1ccc(-c2c(C3=CC[C@H](C(=O)N4CCCC4)C[C@@H]3C)c3c(N)ncnc3n2C)cc1 (single isomer, unassigned) [Example 939]",1 to 100 µM,1 to 100 µM,
"C=CC(=O)N1CC[C@@H](c2c(-c3ccc(Oc4cccc(C)n4)cc3)c3c(N)ncnc3n2C)[C@H]1C (single isomer, unassigned) [Example 940]",1 to 100 µM,1 to 100 µM,
"C=CC(=O)N1CC[C@H](c2c(-c3ccc(Oc4cccc(C)n4)cc3)c3c(N)ncnc3n2C)[C@H]1C (single isomer, unassigned) [Example 941]",0.25 to 1 µM,0.1 to 0.25 µM,
"C=CC(=O)N[C@@H]1CCc2cc(-c3c(-c4ccc(Oc5nccc(C)n5)cc4)c4c(N)ncnc4n3C)ccc21 (single isomer, unassigned) [Example 942]",0.25 to 1 µM,0.25 to 1 µM,
"C=CC(=O)N[C@@H]1CCc2ccc(-c3c(-c4ccc(Oc5nccc(C)n5)cc4)c4c(N)ncnc4n3C)cc2C1 (single isomer, unassigned) [Example 944]",1 to 100 µM,1 to 100 µM,
"C=CC(=O)N[C@H]1CCc2ccc(-c3c(-c4ccc(Oc5nccc(C)n5)cc4)c4c(N)ncnc4n3C)cc2C1 (single isomer, unassigned) [Example 945]",1 to 100 µM,1 to 100 µM,
"C#C[C@@H]1CCCN1C(=O)[C@H]1CC=C(c2c(-c3ccc(NC(=O)C(=C)C)cc3)n(C)c3ncnc(N)c23)CC1 (single isomer, unassigned) [Example 949]",0.1 to 0.25 µM,1 to 100 µM,
"C#C[C@H]1CCCN1C(=O)[C@H]1CC=C(c2c(-c3ccc(NC(=O)C(=C)C)cc3)n(C)c3ncnc(N)c23)CC1 (single isomer, unassigned) [Example 950]",1 to 100 µM,1 to 100 µM,
"C#C[C@@H]1CCCN1C(=O)[C@@H]1CC=C(c2c(-c3ccc(NC(=O)C(=C)C)cc3)n(C)c3ncnc(N)c23)CC1 (single isomer, unassigned) [Example 951]",0.25 to 1 µM,0.1 to 0.25 µM,
"C#C[C@H]1CCCN1C(=O)[C@@H]1CC=C(c2c(-c3ccc(NC(=O)C(=C)C)cc3)n(C)c3ncnc(N)c23)CC1 (single isomer, unassigned) [Example 953]",< 0.1 µM,1 to 100 µM,
"C=C(C)C(=O)Nc1ccc(-c2c(C3=CC[C@@H](C(=O)N4CCC[C@]45CCOC5)CC3)c3c(N)ncnc3n2C)cc1 (single isomer, unassigned) [Example 954]",< 0.1 µM,,≤ 0.1 µM
"C=C(C)C(=O)Nc1ccc(-c2c(C3=CC[C@H](C(=O)N4CCC[C@@]45CCOC5)CC3)c3c(N)ncnc3n2C)cc1 (single isomer, unassigned) [Example 955]",1 to 100 µM,,0.25 to 1 µM
"C=C(C)C(=O)Nc1ccc(-c2c(C3=CC[C@H](C(=O)NC4CCCC4)CC3)c3c(N)ncnc3n2C)cc1 (single isomer, unassigned) [Example 957]",0.1 to 0.25 µM,≤ 0.1 µM,
"C=C(C)C(=O)Nc1ccc(-c2c(C3=CC[C@@H](C(=O)NC4CCCC4)CC3)c3c(N)ncnc3n2C)cc1 (single isomer, unassigned) [Example 958]",0.25 to 1 µM,≤ 0.1 µM,

Compound,IC50 (FGFR2),IC50 (SNU-16; [1]),IC50 (SNU-16; SNU-16 cells)
"C=C(C)C(=O)Nc1ccc(-c2c(C3=CC[C@H](C(=O)N4CCC[C@@]45CCOC5)CC3)c3c(N)ncnc3n2C)cc1 (single isomer, unassigned) [Example 960]",1 to 100 µM,,1 to 100 µM
"C=C(C)C(=O)Nc1ccc(-c2c(C3=CC[C@@H](C(=O)N4CCC[C@]45CCOC5)CC3)c3c(N)ncnc3n2C)cc1 (single isomer, unassigned) [Example 961]",1 to 100 µM,,0.25 to 1 µM
"C=CC(=O)Nc1ccc(-c2c(C3=CC[C@@H](C(=O)N4CCCC4)CC3)c3c(N)ncnc3n2C)cc1 (single isomer, unassigned) [Example 962]",< 0.1 µM,≤ 0.1 µM,
"C=CC(=O)Nc1ccc(-c2c(C3=CC[C@H](C(=O)N4CCCC4)CC3)c3c(N)ncnc3n2C)cc1 (single isomer, unassigned) [Example 963]",< 0.1 µM,≤ 0.1 µM,
"C=CC(=O)N[C@H]1C[C@@H]1c1c(-c2ccc(C(=O)N3CCCC3)cc2)c2c(N)ncnc2n1C (single isomer, unassigned) [Example 972]",1 to 100 µM,1 to 100 µM,
"C=CC(=O)N[C@@H]1C[C@@H]1c1c(-c2ccc(C(=O)N3CCCC3)cc2)c2c(N)ncnc2n1C (single isomer, unassigned) [Example 973]",0.25 to 1 µM,1 to 100 µM,
"C=CC(=O)N[C@@H]1C[C@H]1c1c(-c2ccc(C(=O)N3CCCC3)cc2)c2c(N)ncnc2n1C (single isomer, unassigned) [Example 974]",1 to 100 µM,1 to 100 µM,
"C=CC(=O)N[C@H]1C[C@H]1c1c(-c2ccc(C(=O)N3CCCC3)cc2)c2c(N)ncnc2n1C (single isomer, unassigned) [Example 975]",1 to 100 µM,1 to 100 µM,
"C=C(C)C(=O)Nc1ccc(-c2c(C3=CC[C@H](C(=O)N4CCCCCC4)CC3)c3c(N)ncnc3n2C)cc1 (single isomer, unassigned) [Example 977]",< 0.1 µM,≤ 0.1 µM,
"C=C(C)C(=O)Nc1ccc(-c2c(C3=CC[C@@H](C(=O)N4CCCCCC4)CC3)c3c(N)ncnc3n2C)cc1 (single isomer, unassigned) [Example 979]",0.25 to 1 µM,0.25 to 1 µM,
"C=C(C)C(=O)Nc1ccc(-c2c(C3=CC[C@@H](C(=O)N4CCC[C@H]4COC)CC3)c3c(N)ncnc3n2C)cc1 (single isomer, unassigned) [Example 981]",0.25 to 1 µM,0.25 to 1 µM,
"C=C(C)C(=O)Nc1ccc(-c2c(C3=CC[C@H](C(=O)N4CCC[C@H]4COC)CC3)c3c(N)ncnc3n2C)cc1 (single isomer, unassigned) [Example 982]",1 to 100 µM,0.25 to 1 µM,
"C=C(C)C(=O)Nc1ccc(-c2c(C3=CC[C@@H](C(=O)N4CCc5ccccc54)CC3)c3c(N)ncnc3n2C)cc1 (single isomer, unassigned) [Example 985]",0.25 to 1 µM,0.25 to 1 µM,
"C=C(C)C(=O)Nc1ccc(-c2c(C3=CC[C@H](C(=O)N4CCc5ccccc54)CC3)c3c(N)ncnc3n2C)cc1 (single isomer, unassigned) [Example 986]",0.25 to 1 µM,0.25 to 1 µM,
"C=C(C)C(=O)Nc1ccc(-c2c(C3=CC[C@@]4(CC3)Cc3ccccc3C4=O)c3c(N)ncnc3n2C)cc1 (single isomer, unassigned) [Example 987]",1 to 100 µM,1 to 100 µM,
"C=C(C)C(=O)Nc1ccc(-c2c(C3=CC[C@]4(CC3)Cc3ccccc3C4=O)c3c(N)ncnc3n2C)cc1 (single isomer, unassigned) [Example 988]",0.25 to 1 µM,≤ 0.1 µM,
"C=C(C)C(=O)Nc1ccc(-c2c(C3=CC[C@H](C(=O)N4CCCC45COC5)CC3)c3c(N)ncnc3n2C)c(C)c1 (single isomer, unassigned) [Example 1029]",1 to 100 µM,0.25 to 1 µM,
"C=CC(=O)N[C@H]1CCN(c2cccc(-c3c(-c4ccc(Oc5cccc(C)n5)cc4)c4c(N)ncnc4n3C)c2)C1 (single isomer, unassigned) [Example 1031]",< 0.1 µM,0.1 to 0.25 µM,
"C=CC(=O)N[C@@H]1CCN(c2cccc(-c3c(-c4ccc(Oc5cccc(C)n5)cc4)c4c(N)ncnc4n3C)c2)C1 (single isomer, unassigned) [Example 1032]",0.25 to 1 µM,≤ 0.1 µM,
"C=C(C)C(=O)Nc1ccc(-c2c(C3=CC[C@@H](C(=O)N4CCCC45COC5)CC3)c3c(N)ncnc3n2C)c(C)c1 (single isomer, unassigned) [Example 1033]",< 0.1 µM,≤ 0.1 µM,
"C=C(C)C(=O)Nc1ccc(-c2c(C3=CC[C@H](C(=O)N4CCCC4)CC3)c3c(N)ncnc3n2C)c(C)c1 (single isomer, unassigned) [Example 1034]",0.1 to 0.25 µM,≤ 0.1 µM,
"C=C(C)C(=O)Nc1ccc(-c2c(C3=CC[C@@H](C(=O)N4CCCC4)CC3)c3c(N)ncnc3n2C)c(C)c1 (single isomer, unassigned) [Example 1035]",< 0.1 µM,≤ 0.1 µM,
"CN(C)C/C=C/C(=O)Nc1ccc(-c2c(C3=CC[C@@H](C(=O)N4CCCC4)CC3)c3c(N)ncnc3n2C)cc1 (single isomer, unassigned) [Example 1036]",0.25 to 1 µM,≤ 0.1 µM,
